Data on twelve compounds can be found in patent publication US10946017B2, “Tank-binding kinase-1 PROTACs and associated methods of use” (Arvinas Operations, Inc., priority 2015, dated 2021).

Assay [1] deals with Von Hippel-Lindau (VHL) E3 ligase (Homo sapiens (Human), UniProt P40337). The assay can be described thus: VHL binding, FP assay. Conditions: affinity of the VHL ligand component with side chain R2.
Assay [2] has as its target T1, TBK1 (Homo sapiens (Human), UniProt Q9UHD2). The assay can be described thus: In vitro TBK1 degradation assay, Panc02.13 cells (compounds 3-33), immunoblot. Format: cell-based. Conditions: for DC50: read-out: DC50 (concentration at which 50% degradation is observed). The protocol:
(§1) In vitro degradation assay protocol for compounds 3-33: Panc02.13 cells were purchased from ATCC and cultured in RPMI-1640 (Gibco), supplemented with 15% FBS (ATCC) and 10 Units/mL human recombinant insulin (Gibco). PROTAC treatments were carried out in 12-well plates for 16 h. TLR3 agonist Poly I:C (Invivogen; tlr1-pic) was added for the final 3 h. Cells were harvested, and lysed in RIPA buffer (50 mM Tris pH8, 150 mM NaCl, 1% Tx-100, 0.1% SDS, 0.5% Sodium Deoxycholate) supplemented with protease and phosphatase inhibitors. Lysates were clarified at 16,000 g for 10 minutes, and supernatants were separated by SDS-PAGE. Immunoblotting was performed using standard protocols. The antibodies used were TBK1 (Cell Signaling#3504), pIRF3 (abcam#ab76493), and GAPDH (Cell Signaling#5174).
(In general: A western blot detects proteins with antibodies after separation by electrophoresis.)

Assay [3] has as its target T1, TBK1. The assay can be described thus: TBK1 binding affinity (Kd).
The target of assay [4] is T1, TBK1. The assay can be described thus: In vitro TBK1 degradation assay, MDA MB 231 cells (compounds 34-57), immunoblot. Format: cell-based. Conditions: 1 uM compound, 16 h, read-out: % TBK1 remaining at 1 uM Cmpd. The procedure:
MDA MB 231 cells were purchased from ATCC and cultured in RPMI-1640 (Gibco), supplemented with 10% FBS (Gibco). PROTAC treatments were carried out in 24-well plates for 16 h. Cells were harvested, and lysed in RIPA buffer (50 mM Tris pH8, 150 mM NaCl, 1% Tx-100, 0.1% SDS, 0.5% Sodium Deoxycholate) supplemented with protease and phosphatase inhibitors. Lysates were clarified at 16,000 g for 10 minutes, and supernatants were separated by SDS-PAGE. Immunoblotting was performed using standard protocols. The antibodies used were TBK1 (Cell Signaling#3504) and GAPDH (Cell Signaling#5174).

The test system of assay [5] is KRAS mutant cell lines H23, A549 and H1792, and KRAS wild type cell line H2110. Briefly: Proliferation of KRAS mutant and wild type cell lines. The format is cell-based. As to conditions: 72 hour treatment.
Assay [6] addresses T2, IKKε (Homo sapiens (Human), UniProt Q14164). The assay can be described thus: IKKε binding affinity (Kd).
Assay [7] concerns the target T1, TBK1. The assay can be described thus: TBK1 degradation in KRAS mutant and wild type cell lines. The format is cell-based. Conditions: 72 hour treatment; H23, A549, H1792 (KRAS mutant), H2110 (KRAS wild type).
The next assay concerns pIRF3. Briefly: Inhibition of TBK1 downstream marker pIRF3 in cells. The format is cell-based. The protocol: as §1
Assay [8] has as its target T2, IKKε. The assay can be described thus: IKKε degradation in cells. The format is cell-based.
The mark [9] stands for this setting: TBK1 degradation, Panc02.13 cells, 16 h, mean of ≥ 2 determinations.

Entries after “also recorded” stand apart in the source; their conditions may differ. Like-named read-outs stand apart in the source and are kept apart here.

T1 sequence (Q9UHD2 whole entry): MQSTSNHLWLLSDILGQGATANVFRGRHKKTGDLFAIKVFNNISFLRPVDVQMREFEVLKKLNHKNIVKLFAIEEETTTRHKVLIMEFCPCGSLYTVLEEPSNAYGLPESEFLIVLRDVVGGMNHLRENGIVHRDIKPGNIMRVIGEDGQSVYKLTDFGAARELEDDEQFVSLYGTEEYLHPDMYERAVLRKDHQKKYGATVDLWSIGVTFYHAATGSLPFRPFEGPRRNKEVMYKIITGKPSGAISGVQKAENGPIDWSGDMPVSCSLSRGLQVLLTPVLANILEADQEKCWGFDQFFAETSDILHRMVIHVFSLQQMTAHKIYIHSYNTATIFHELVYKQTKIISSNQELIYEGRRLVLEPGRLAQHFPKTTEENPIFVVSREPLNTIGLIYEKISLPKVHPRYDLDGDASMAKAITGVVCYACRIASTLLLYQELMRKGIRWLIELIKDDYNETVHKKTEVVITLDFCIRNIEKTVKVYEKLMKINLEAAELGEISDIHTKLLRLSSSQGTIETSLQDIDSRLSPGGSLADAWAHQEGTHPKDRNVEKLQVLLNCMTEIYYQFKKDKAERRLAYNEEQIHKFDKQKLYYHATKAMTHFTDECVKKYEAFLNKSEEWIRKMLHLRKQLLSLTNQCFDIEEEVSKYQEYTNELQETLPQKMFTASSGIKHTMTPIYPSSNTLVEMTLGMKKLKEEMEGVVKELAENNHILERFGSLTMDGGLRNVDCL
Sequence of Von Hippel-Lindau (VHL) E3 ligase (P40337 whole entry, looked up): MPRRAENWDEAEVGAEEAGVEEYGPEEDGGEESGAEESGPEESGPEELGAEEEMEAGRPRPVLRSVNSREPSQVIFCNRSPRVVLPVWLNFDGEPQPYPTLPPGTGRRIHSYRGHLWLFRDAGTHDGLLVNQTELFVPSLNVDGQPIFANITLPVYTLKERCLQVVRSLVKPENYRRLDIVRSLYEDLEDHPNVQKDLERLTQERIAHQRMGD
Sequence of Von Hippel-Lindau (VHL) E3 ligase (Q15370 whole entry partner, looked up): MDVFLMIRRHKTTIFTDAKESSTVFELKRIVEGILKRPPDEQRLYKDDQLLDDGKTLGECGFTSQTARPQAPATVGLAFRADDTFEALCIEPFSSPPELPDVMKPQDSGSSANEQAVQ
Sequence of Von Hippel-Lindau (VHL) E3 ligase (Q15369 whole entry partner, looked up): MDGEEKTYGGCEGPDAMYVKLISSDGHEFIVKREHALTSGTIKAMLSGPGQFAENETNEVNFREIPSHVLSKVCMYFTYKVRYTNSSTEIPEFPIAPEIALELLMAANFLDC
T2 sequence (Q14164 whole entry): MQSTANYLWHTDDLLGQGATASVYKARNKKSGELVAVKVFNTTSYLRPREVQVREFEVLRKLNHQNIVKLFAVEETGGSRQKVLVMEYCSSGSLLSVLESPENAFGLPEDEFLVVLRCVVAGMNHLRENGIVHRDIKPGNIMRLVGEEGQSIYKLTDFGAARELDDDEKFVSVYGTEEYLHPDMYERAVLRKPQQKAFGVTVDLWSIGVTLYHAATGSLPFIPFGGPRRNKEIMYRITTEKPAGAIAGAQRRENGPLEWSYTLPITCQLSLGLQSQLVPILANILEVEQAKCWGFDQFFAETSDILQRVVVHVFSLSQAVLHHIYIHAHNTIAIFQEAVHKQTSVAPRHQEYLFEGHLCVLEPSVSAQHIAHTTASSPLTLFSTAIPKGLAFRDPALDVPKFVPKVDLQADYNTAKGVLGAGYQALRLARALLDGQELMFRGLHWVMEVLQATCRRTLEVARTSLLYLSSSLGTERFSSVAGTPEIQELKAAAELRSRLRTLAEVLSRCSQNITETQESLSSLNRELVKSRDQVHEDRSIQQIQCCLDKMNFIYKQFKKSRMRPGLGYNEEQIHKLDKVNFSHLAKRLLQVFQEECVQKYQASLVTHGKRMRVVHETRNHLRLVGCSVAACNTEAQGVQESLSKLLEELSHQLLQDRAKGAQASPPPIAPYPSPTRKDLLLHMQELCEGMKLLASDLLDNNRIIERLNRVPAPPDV

One may read the IC50 as the point on the concentration scale where inhibition reaches its midpoint. Read a low IC50 as higher potency. On to `CCC[C@H](NC(=O)COCCCOCCCCOCCCOc1ccc(Nc2ncc(Br)c(NCCCN(C)C(=O)C3CCC3)n2)cc1)C(=O)N1C[C@H](O)C[C@H]1C(=O)NCc1ccc(-c2scnc2C)cc1` [Compound 32], for which, in assay [1], the IC50 was 6200 nM. On TBK1 [2] (setting [9]), the “Dmax (maximal degradation observed)” value came out at 75% and the DC50 came out at 288 nM.

As to `Cc1ncsc1-c1ccc(CNC(=O)[C@@H]2C[C@@H](O)CN2C(=O)CNC(=O)COCCCOCCCCOCCCOc2ccc(Nc3ncc(Br)c(NCCCN(C)C(=O)C4CCC4)n3)cc2)cc1` [Compound 29], the IC50 in assay [1] is 106000 nM. At TBK1 [2] (setting [9]), the “Dmax (maximal degradation observed)” value was 0% and the DC50 is > 1000 nM.

`Cc1ncsc1-c1ccc(CNC(=O)[C@@H]2C[C@@H](O)CN2C(=O)[C@H](C)NC(=O)COCCCOCCCCOCCCOc2ccc(Nc3ncc(Br)c(NCCCN(C)C(=O)C4CCC4)n3)cc2)cc1` [Compound 30] yielded an IC50 in assay [1] of 23600 nM. In addition, on TBK1 [2] (setting [9]), the “Dmax (maximal degradation observed)” value came out at 34% and the DC50 was > 1000 nM.

Compound `Cc1ncsc1-c1ccc(CNC(=O)[C@@H]2C[C@@H](O)CN2C(=O)[C@@H](NC(=O)COCCCOCCCCOCCCOc2ccc(Nc3ncc(Br)c(NCCCN(C)C(=O)C4CCC4)n3)cc2)C(C)C)cc1` [Compound 33] came in with an IC50 in assay [1] of 1450 nM. In addition, at TBK1 [2] (setting [9]), the “Dmax (maximal degradation observed)” value was 88% and the DC50 was 44 nM.

In general, Kd refers to the constant that tells how readily two partners part at equilibrium. Read a low Kd as tighter binding. `Cc1ncsc1-c1ccc(CNC(=O)[C@@H]2C[C@@H](O)CN2C(=O)[C@@H](NC(=O)COCCCOCCCCOCCCOc2ccc(Nc3ncc(C4CCC4)c(NCCCN(C)C(=O)C4CCC4)n3)cc2)C(C)(C)C)cc1` [Compound 22] yielded a Kd at TBK1 [3] of 1040 ± 165 nM. In addition, binding on TBK1 [3] (rounded value) was put at a Kd of 1000 nM. Further, on TBK1 [2] (setting [9]), the “Dmax (maximal degradation observed)” value was determined as 70% and the DC50 turned out to be 544 nM.

For `Cc1ncsc1-c1ccc(CNC(=O)[C@@H]2C[C@@H](O)CN2C(=O)[C@H](C(C)C)N2Cc3ccccc3C2=O)c(OCCOCCOCCOCCOCCOCCOc2ccc(Nc3ncc(Br)c(NCCCN(C)C(=O)C4CCC4)n3)cc2)c1` [Compound 37], the remaining activity at 1 µM at TBK1 [4] is ≥ 81%.

For the compound `Cc1ncsc1-c1ccc(CNC(=O)[C@@H]2C[C@@H](O)CN2C(=O)[C@@H](NC(=O)COCCCOCCCCOCCCOc2cccc(Nc3ncc4c(n3)N(CCCN(C)C(=O)C3CCC3)CC4)c2)C(C)(C)C)cc1` [Compound 53], on TBK1 [4], the remaining activity at 1 µM is ≥ 81%.

As for `Cc1ncsc1-c1ccc(CNC(=O)[C@@H]2C[C@@H](O)CN2C(=O)[C@H](C(C)C)N2Cc3ccccc3C2=O)c(OCCOCCCOc2ccc(Nc3ncc(Br)c(NCCCN(C)C(=O)C4CCC4)n3)cc2)c1` [Compound 43], the remaining activity at 1 µM at TBK1 [4] was 41 to 80%.

One may read the Dmax as the largest share of the target that was removed. Take `Cc1ncsc1-c1ccc(CNC(=O)[C@@H]2C[C@@H](O)CN2C(=O)[C@@H](NC(=O)COCCCOCCCCOCCCOc2ccc(Nc3ncc(Br)c(NCCCN(C)C(=O)C4CCC4)n3)cc2)C(C)(C)C)cc1` [Compound 11, (2S,4R)-1-((S)-18-(4-((5-Bromo-4-((3-(N-methylcyclobutanecarboxamido)-propyl)amino)pyrimidin-2-yl)amino)phenoxy)-2-(tert-butyl)-4-oxo-6,10,15-trioxa-3-azaoctadecan-1-oyl)-4-hydroxy-N-(4-(4-methylthiazol-5-yl)benzyl)pyrrolidine-2-carboxamide]: the “effect on proliferation of KRAS mutant versus wild type cells” value in [5] was “no differential effect on the proliferation”. Also, the affinity on IKKε [6], expressed as Kd, was 70 nM. Moreover, binding on TBK1 [3] was characterised by a dissociation constant (Kd) of 4.6 ± 1.1 nM. Moreover, the IC50 in assay [1] amounted to 800 nM. On TBK1 [7], the “TBK1 degradation in KRAS mutant and wild type cells” value is reported as “near complete degradation of TBK1”. Further, in the assay on pIRF3, the “intracellular TBK1 binding indicated by inhibition of pIRF3” value was “competent intracellular TBK1 binding”. The DC50 at TBK1 [2] (setting [9]) stood at 12 nM. For the same compound, the Dmax at TBK1 [2] (TBK1 degradation, Panc02.13 cells, 16 h, mean of ≥ 2 determinations, read-out: Dmax (maximal degradation observed)) was 96%. Moreover, on TBK1 [2] (excess VHL ligand 2 as competitor), the “TBK1 degradation with excess VHL ligand 2 added” value was “abrogated TBK1's degradation”. Further, the “TBK1 degradation (in words)” value at TBK1 [2] (listed as PROTAC 11) is recorded as “Maximal efficacy; also recorded: effects degradation of TBK1”. The “TBK1 degradation after pre-treatment with proteasome inhibitor carfilzomib” value on TBK1 [2] (pre-treatment with carfilzomib, listed as PROTAC 11) was “markedly reduced the extent of TBK1 degradation; also recorded: abrogated”. At IKKε [8], the IKKε degradation entry is recorded as “negligible degradation” and the “degradation selectivity TBK1 over IKKε” value was “selectively degrades TBK1 over IKKε”.

As to `Cc1ncsc1-c1ccc(CNC(=O)[C@@H]2C[C@@H](O)CN2C(=O)[C@H](C(C)C)N2Cc3ccccc3C2=O)c(OCCOCCOCCCCOCCOCCOc2ccc(Nc3ncc(Br)c(NCCCN(C)C(=O)C4CCC4)n3)cc2)c1` [Compound 45], the remaining activity at 1 µM at TBK1 [4] was 41 to 80%.

Regarding `Cc1ncsc1-c1ccc(CNC(=O)[C@@H]2C[C@@H](O)CN2C(=O)[C@H](C(C)C)N2Cc3ccccc3C2=O)c(OCCOCCOCCCOCCOCCOc2ccc(Nc3ncc(Br)c(NCCCN(C)C(=O)C4CCC4)n3)cc2)c1` [Compound 42], the remaining activity at 1 µM at TBK1 [4] lay in the range of 41 to 80%.

In assay [1], `CC[C@H](NC(=O)COCCCOCCCCOCCCOc1ccc(Nc2ncc(Br)c(NCCCN(C)C(=O)C3CCC3)n2)cc1)C(=O)N1C[C@H](O)C[C@H]1C(=O)NCc1ccc(-c2scnc2C)cc1` [Compound 31] had an IC50 of 70400 nM. Further, on TBK1 [2] (setting [9]), the “Dmax (maximal degradation observed)” value is recorded as 71% and the DC50 was 864 nM. Besides, the “Dmax (maximal degradation observed)” value at TBK1 [2] (TBK1 degradation, Panc02.13 cells, 16 h, mean of ≥ 2 determinations, listed as PROTAC 31) is > 70%.
